{
  "source": "patent US20110136777A1",
  "about": "“CRYSTALLINE SODIUM SALT OF CEPHALOSPORIN ANTIBIOTIC” (Orchid Chemicals and Pharmaceuticals Limited, priority 2008, published 2011)",
  "key": {"[1]": {"test": "Hygroscopic nature of the solid", "type": "physicochemical"}, "Tapped bulk density": {"test": "Tapped bulk density", "type": "physicochemical"}, "[2]": {"test": "Stability over shelf life (statement in words)", "settings": "over the shelf life period"}, "[3]": {"test": "Stability at 25 ± 2° C. & 60 ± 5% RH", "type": "physicochemical", "settings": "for Assay: in % (unit assumed)", "description": "(§1) In still another embodiment of the present invention, novel anhydrous crystalline polymorph of Ceftiofur sodium (Form A) of formula (I) having the following X-ray diffraction characteristic peaks (±0.2°2θ): 5.68, 6.54, 8.84, 12.82, 13.16, 16.33, 17.36, 18.71, 18.94, 20.25, 21.53, 22.11, 22.79, 24.44, 24.88, 25.46, and 27.00 in °2θ. The anhydrous crystalline Ceftiofur sodium of the present invention has moisture content in the range of 0.4 to 2.0%. The anhydrous Ceftiofur sodium (Form A) is prepared by drying the Ceftiofur sodium either under vacuum or under normal pressure at a temperature in the range of 60-125° C. till the moisture content reaches 0.4 to 2.0%. The moisture content of Ceftiofur sodium is measured by using Karl-Fisher technique. The following tables (Table 2 & 3) provide stability data of anhydrous crystalline Ceftiofur Sodium (Form A) prepared according to this invention. From this table it is evident that the anhydrous crystalline Ceftiofur Sodium prepared according this invention is very stable and highly pure, which is clearly indicated by total RS (Related substances) analysis & the stability data."}, "[4]": {"test": "Stability at 40 ± 2° C. & 75 ± 5% RH", "type": "physicochemical", "settings": "for Assay: in % (unit assumed)", "description": "as §1"}},
  "note": "Read-outs that look alike come from different tables or passages of the source.",
  "data": [
    {"smiles": "CO/N=C(\\C(=O)N[C@@H]1C(=O)N2C(C(=O)[O-])=C(CSC(=O)c3ccco3)CS[C@H]12)c1csc(N)n1.[Na+]", "note": "[Amorphous, Ceftiofur sodium, reference compound]", "values": [
      {"measurement": "Nature (hygroscopicity)", "setting": "[1]; listed as conventional amorphous Ceftiofur sodium", "value": "highly hygroscopic"},
      {"measurement": "Tapped Bulk density", "setting": "Tapped bulk density", "value": 0.5, "unit": "g/mL"},
      {"measurement": "Stability", "setting": "[2]; listed as amorphous Ceftiofur sodium", "value": "less stable"}
    ]},
    {"smiles": "CO/N=C(\\C(=O)N[C@@H]1C(=O)N2C(C(=O)[O-])=C(CSC(=O)c3ccco3)CS[C@H]12)c1csc(N)n1.[Na+]", "note": "[Form A, Ceftiofur sodium]", "values": [
      {"measurement": "Moisture Content", "setting": "[3]; 3 Months", "value": 1.05, "unit": "%"},
      {"measurement": "Total RS (Related substances)", "setting": "[3]; 3 Months", "value": 0.16, "unit": "%"},
      {"measurement": "Assay", "setting": "[3]; 3 Months", "value": 98.84},
      {"measurement": "Moisture Content", "setting": "[3]; 6 month", "value": 1.11, "unit": "%"},
      {"measurement": "Total RS (Related substances)", "setting": "[3]; 6 month", "value": 0.21, "unit": "%"},
      {"measurement": "Assay", "setting": "[3]; 6 month", "value": 99.47},
      {"measurement": "Moisture Content", "setting": "[3]; Initial", "value": 1.05, "unit": "%"},
      {"measurement": "Total RS (Related substances)", "setting": "[3]; Initial", "value": 0.15, "unit": "%"},
      {"measurement": "Assay", "setting": "[3]; Initial", "value": 99.74},
      {"measurement": "Moisture Content", "setting": "[4]; 3 Months", "value": 1.08, "unit": "%"},
      {"measurement": "Total RS (Related substances)", "setting": "[4]; 3 Months", "value": 0.19, "unit": "%"},
      {"measurement": "Assay", "setting": "[4]; 3 Months", "value": 98.14},
      {"measurement": "Moisture Content", "setting": "[4]; 6 month", "value": 1.54, "unit": "%"},
      {"measurement": "Total RS (Related substances)", "setting": "[4]; 6 month", "value": 0.33, "unit": "%"},
      {"measurement": "Assay", "setting": "[4]; 6 month", "value": 98.64},
      {"measurement": "Moisture Content", "setting": "[4]; Initial", "value": 1.05, "unit": "%"},
      {"measurement": "Total RS (Related substances)", "setting": "[4]; Initial", "value": 0.15, "unit": "%"},
      {"measurement": "Assay", "setting": "[4]; Initial", "value": 99.74},
      {"measurement": "Nature (hygroscopicity)", "setting": "[1]", "value": "Non-Hygroscopic"},
      {"measurement": "Nature (hygroscopicity)", "setting": "[1]; listed as anhydrous crystalline Ceftiofur sodium", "value": "non-hygroscopic"},
      {"measurement": "Tapped Bulk density", "setting": "Tapped bulk density", "value": 0.7, "unit": "g/mL"},
      {"measurement": "Stability", "setting": "[2]", "value": "good"}
    ]}
  ]
}
